Test results taken from patent US20040105860A1, “Cell modulation using a cytoskeletal protein” (priority 2002, published 2004).

What was measured:
cyclin A mRNA = test: Ribonuclease protection assay (RPA) of cyclin A mRNA expression in EC; format: cell-based, Bovine; conditions: pre-treatment of EC with Y27632
Method: FIGS. 1A-D are explained in more detail as follows. Synchronized ECs were serum stimulated in the presence or absence of TNF for indicated times. Total cellular RNA was isolated and was analyzed by RPA for cyclin A, cyclin B and cyclin D1 expression. A representative autoradiograph is shown (FIG. 1A). mRNA expression of cyclins was corrected to that of GAPDH and quantified by densitometric analysis (FIGS. 1B-D). Data represent average of 3 similar experiments.
FIGS. 12A-C are explained in more detail as follows. (FIG. 12A) Representative PCR gel photograph showing amplification of 200 bp cyclin A promoter emcompassing CHR elements from ant-ezrin antibody immunoprecipitated chromatin. (FIG. 12B) BAECs co-transfected with cyclin A promoter-reporter construct and either wt or dnEzrin constructs and cultured in presence or absence of TNF for 24 h before were analyzed for luciferase activity. Bar graph represents average promoter activity from 3 similar experiments (*p<0.01). (FIG. 12C) Total RNA from empty vector wt or dnEzrin transfected cells under control or TNF-treatment conditions was evaluated for cyclin A mRNA expression by ribonuclease protection assays. Representative autoradiograph is shown.
3. […]

EC proliferation = test: Thymidine uptake assay, EC proliferation; format: cell-based, Bovine
Method: Having documented TNF-induced nuclear translocation and the ability of ezrin to bind to cyclin A CHR elements, the functional consequences of TNF-mediated ezrin modulation in EC was determined. To evaluate the effect of ezrin over-expression in the presence of TNF on cell proliferation, EC were transiently transfected with either wtEzrin or dnEzrin expression vectors. Cells were treated or not with TNF and BrdU (50 μg/mL) was added to all cultures for 6 hours. […] Tritiated thymidine uptake assays were performed as an independent measure of cell proliferation in similarly transfected and treated cells and corroborated the findings of BrdU incorporation (FIG. 11C).
FIGS. 11A-E are explained in more detail as follows. Quiescent BAECs transiently transfected with empty vector, wild type and dominant negative ezrin were cultured in the absence (control) or presence of 20 ng/mL TNF for 24 hrs. Cells were labeled with BrdU (50 μg/mL) for last 6 hrs of culture. […] BrdU positive cells were counted in at least 6 different visual fields. […]
To provide further evidence that the improvement in EC function attained by inhibition of ROCK-2 was mediated by ezrin, we performed rescue experiments. EC transiently transfected with wtEzrin and treated with TNF were co-treated with increasing doses of Y27632 and cell proliferation was determined by thymidine incorporation.

ezrin phosphorylation = test: Western blot for phospho-ezrin in EC lysates; format: cell-based, Bovine; conditions: Y27632 20 μM, all experimental time points
RhoA kinase (ROCK-2) = RhoA kinase (ROCK-2) (Bos taurus, UniProt Q28021); test: Western blot for ROCK-2 in EC lysates; format: cell-based, Bovine; conditions: co-treatment with Y27632 20 micromolar at the time of TNF exposure
RhoA kinase (ROCK-2), sequence (Q28021 whole entry): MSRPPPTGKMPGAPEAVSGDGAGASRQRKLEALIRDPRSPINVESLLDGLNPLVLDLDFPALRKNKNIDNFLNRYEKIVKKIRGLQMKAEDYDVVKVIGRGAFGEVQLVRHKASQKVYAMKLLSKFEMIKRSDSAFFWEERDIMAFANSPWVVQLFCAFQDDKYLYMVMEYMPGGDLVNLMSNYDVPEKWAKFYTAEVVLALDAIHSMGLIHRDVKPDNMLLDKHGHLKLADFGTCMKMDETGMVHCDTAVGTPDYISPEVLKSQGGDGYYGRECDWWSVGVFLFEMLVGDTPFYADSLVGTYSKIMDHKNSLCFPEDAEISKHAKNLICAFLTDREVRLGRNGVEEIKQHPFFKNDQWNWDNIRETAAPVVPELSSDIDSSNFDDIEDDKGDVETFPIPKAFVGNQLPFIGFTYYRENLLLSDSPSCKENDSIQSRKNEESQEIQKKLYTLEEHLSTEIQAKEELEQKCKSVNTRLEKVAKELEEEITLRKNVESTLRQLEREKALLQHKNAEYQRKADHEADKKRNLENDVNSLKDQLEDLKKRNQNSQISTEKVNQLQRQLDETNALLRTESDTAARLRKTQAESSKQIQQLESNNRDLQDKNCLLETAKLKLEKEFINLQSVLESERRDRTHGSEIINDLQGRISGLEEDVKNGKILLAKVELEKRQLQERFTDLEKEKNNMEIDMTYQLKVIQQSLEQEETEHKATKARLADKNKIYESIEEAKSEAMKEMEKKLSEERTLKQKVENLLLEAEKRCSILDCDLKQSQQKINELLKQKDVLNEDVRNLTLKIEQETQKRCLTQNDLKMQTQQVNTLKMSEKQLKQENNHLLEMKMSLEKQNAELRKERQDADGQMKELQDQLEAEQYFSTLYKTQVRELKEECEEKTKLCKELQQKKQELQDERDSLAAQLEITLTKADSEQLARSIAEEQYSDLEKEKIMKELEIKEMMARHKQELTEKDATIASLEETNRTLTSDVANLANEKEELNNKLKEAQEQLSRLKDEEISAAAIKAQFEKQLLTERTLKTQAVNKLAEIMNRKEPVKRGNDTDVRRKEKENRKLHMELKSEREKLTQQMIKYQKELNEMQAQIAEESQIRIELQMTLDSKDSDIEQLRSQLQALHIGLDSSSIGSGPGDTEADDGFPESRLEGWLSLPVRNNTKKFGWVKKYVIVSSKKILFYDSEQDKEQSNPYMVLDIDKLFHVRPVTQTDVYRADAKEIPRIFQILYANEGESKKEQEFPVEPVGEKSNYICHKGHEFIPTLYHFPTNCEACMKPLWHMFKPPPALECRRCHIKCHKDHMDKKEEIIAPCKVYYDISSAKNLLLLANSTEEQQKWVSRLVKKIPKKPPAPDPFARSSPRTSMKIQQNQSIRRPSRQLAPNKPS

[1] = system: CDE-CHR elements of the cyclin A promoter; test: EMSA of EC nuclear extracts with CDE-CHR / CHR oligonucleotides; format: cell-based, Bovine
cyclin A CHR elements = test: South-western analysis and UV cross-linking of nuclear proteins with CDE-mCHR or mCDE-CHR probes; format: cell-based, Bovine; conditions: cycloheximide 5 μg/mL along with TNF
Description: Nuclear proteins from asynchronously growing BAEC with or without TNF were probed with ^32P-labeled CDE-mCHR or mCDE-CHR oligonucleotides.
To confirm that 84 kDa protein in TNF treated extracts identified in FIGS. 8A-B, does bind to CHR elements, we performed UV cross-linking experiments. EMSA reactions were assembled as before followed by UV cross-linking. The reactions were then boiled in SDS loading buffer and resolved on 12% SDS-PAGE. In reactions probed with CDE-mCHR the 35-kDa protein seen before was observed again (FIGS. 8C-D). In reactions probed with mCDE-CHR probe, the previously identified (FIGS. 8A-B) 39-kDa protein was found cross-linked to oligonucleotide. Similarly, the 84-kDa protein from TNF treated extract cross-linked with mCDE-CHR probe, further confirming the southwestern results.
FIGS. 8A-E are explained in more detail as follows. FIGS. 8A-B. Representative autoradiograph of south-western analysis. Nuclear proteins from asynchronously growing EC with or with out TNF treatment were size fractionated on a 12% SDS-PAGE gel, transferred to PVDF membrane and renatured. Membranes were then incubated with radio-labeled CDE-mCHR or mCDE-CHR oligonucleotide. Membranes were washed, air dried and autoradiographed. […]

[2] = system: CHR oligonucleotides (cyclin A promoter); test: EMSA of recombinant protein with CHR oligonucleotides; format: binding; conditions: recombinant protein 1 μg
Description: Nuclear extracts from control and TNF-treated EC were mixed with biotin-labeled CHR oligonucleotides and the bound proteins were captured on avidin-agarose beads. Eluted proteins from beads were subjected to Western blot analysis for ezrin. […] Specificity of CHR-ezrin binding was further confirmed by EMSA assays using recombinant-ezrin protein (GST-ezrin). […] We next evaluated the effect of TNF-induced ezrin binding to cyclin A-CHR by dominant-negative ezrin over-expression. EC were transiently transfected with wild-type (wtEzrin) and dominant negative (dnEzrin) ezrin expression vector. […] That TNF-induced modulation of ezrin up-regulates CHR-binding activity was further evident from ezrin immunodepletion experiments. Endogenous ezrin was immunodepleted from control and TNF-treated nuclear extracts by treating extracts with anti-ezrin antibodies over 5 rounds. Immunodepleted extracts were then analyzed by EMSA for CHR-binding activity.
FIGS. 9A-D are explained in more detail as follows. […] Eluted proteins from beads were analyzed for ezrin protein in western blots. […] (FIG. 9C) Nuclear extracts from control and TNF-treated BAECs, transfected with wild type or dominant negative ezrin, were evaluated CHR binding activity in EMSAs. […] Depleted extracts alone or depleted extracts from TNF treated cells reconstituted with GST-ezrin were then analyzed for CHR binding activity. […]

For `C[C@@H](N)[C@H]1CC[C@H](C(=O)Nc2ccncc2)CC1` [Y27632], the “TNF-mediated inhibition of cyclin A mRNA expression” value (cyclin A mRNA) was “reversed”, the “ezrin/TNF mediated inhibition of EC proliferation” value (EC proliferation; EC transfected with wtEzrin, treated with TNF, increasing doses of Y27632) was “dose dependently reversed” and the “inhibitory effect of TNF on EC proliferation” value (EC proliferation; treatment of EC with Y27632 in the presence of TNF) was “partially abrogated”. The TNF-induced ezrin phosphorylation (ezrin phosphorylation) was “completely inhibited”, the “ROCK-2 induction by TNF” value (RhoA kinase (ROCK-2)) was “completely abolished” and the “TNF-induced CHR binding activity” value ([1]; nuclear extracts from EC co-treated with TNF and Y27632) was “significantly reduced”.

In the case of `C[C@@H]1C[C@@H]([C@H](O)CC2CC(=O)NC(=O)C2)C(=O)[C@@H](C)C1` [cycloheximide], the “induction of 84-kDa protein by TNF” value (cyclin A CHR elements) is reported as “failed to induce the protein”.

“Recombinant ezrin: Recombinant human ezrin protein (GST-ezrin)” was tested, and the “complex formation with CHR oligonucleotides” value [2] was “formed complex” and the “CHR-binding activity of ezrin-immunodepleted TNF-extract” value ([1]; recombinant ezrin added back to the depleted TNF-extract) was “significantly increased”.

B1: recombinant-DP1 protein: control recombinant-DP1 protein used in EMSA (protein, UniProt Q14186 1-410, looked up)
Transcription factor Dp-1: MAKDAGLIEANGELKVFIDQNLSPGKGVVSLVAVHPSTVNPLGKQLLPKTFGQSNVNIAQQVVIGTPQRPAASNTLVVGSPHTPSTHFASQNQPSDSSPWSAGKRNRKGEKNGKGLRHFSMKVCEKVQRKGTTSYNEVADELVAEFSAADNHILPNESAYDQKNIRRRVYDALNVLMAMNIISKEKKEIKWIGLPTNSAQECQNLEVERQRRLERIKQKQSQLQELILQQIAFKNLVQRNRHAEQQASRPPPPNSVIHLPFIIVNTSKKTVIDCSISNDKFEYLFNFDNTFEIHDDIEVLKRMGMACGLESGSCSAEDLKMARSLVPKALEPYVTEMAQGTVGGVFITTAGSTSNGTRFSASDLTNGADGMLATSSNGSQYSGSRVETPVSYVGEDDEEDDDFNENDEDD
For B1, the “complex formation with CHR oligonucleotides” value [2] was “did not form the complex”.
